Measured values as given in patent US20260070927A1, “INDAZOLE MACROCYCLES FOR THE TREATMENT OF AUTOIMMUNE DISEASE” (Hoffmann-La Roche Inc., priority 2022, published 2026).

How the values were obtained:
[1] = system: STING (IFN-β in hPBMC); test: hPBMC cytokine functional assay (IFN-β decrease after Baculovirus stimulation); type: cell-based; conditions: Homo sapiens, Baculovirus MOI 40, 24 hours, read-out: hPBMC_IC50
Description: The inhibition of STING by compounds could be measured by the decrease of IFN-β in hPBMC, which is stimulated by a double stranded DNA virus Baculoviurs (Purchased from Genescript, pCMV-Dest Vector virus generation P2 BV stock virus, Sf-900 II medium with 5% FBS, Lot C9835DK230-2/P4DL001). Frozen hPBMC cells (purchased from Stemcell Technologies, cat number is 70025, Lot 191070803C) were thawed at 37° C. water bath, then cells were re-suspended in 50 ml tube using 20 ml Cell culture medium, and then centrifuged for 5 min at 2000 rpm before the supernatant was removed carefully. The cells were re-suspended in culture medium (RPMI-1640 with 1.5 g/L NaHCO3, 4.5 g/L glucose, 10 mM HEPES and 1 mM Na-pyruvate, 10% HI-FBS); 65 μL of the cell suspension was dispensed into 384 well plate (70K cells/well) by Multidrop Combi with at least 3 hours incubation at 37° C., 5% CO2 cell incubator.
Then 4 μL of compound solution per well (final 0.5% DMSO) was transferred by Agilent Bravo followed by infection with 11 μL of Baculovirus at a final MOI of 40. The level of IFN-β secreted in the supernatant of hPBMC was determined after 24 hours of incubation at 37° C. cell incubator by human IFN-β HTRF assay (Cisbio, cat: 62HIFNBPEH) following the manufacture's instruction. CellTiter-Glo kit (Promega, cat: G7573) was applied for the cell viability evaluation using Envision.

[2] = Metabolic (liver microsomal) stability assay; conditions: human liver microsomes, 1 μM test compound
Description: The liver microsomal stability assay is used for early assessment of metabolic stability of a test compound in liver microsomes.
Liver microsomes were preincubated with test compound for 10 minutes at 37° C. in 100 mM potassium phosphate buffer, pH 7.4. The reactions were initiated by adding NADPH regenerating system. The final incubation mixtures contained 1 μM test compound, 0.5 mg/mL liver microsomal protein, 1 mM MgCl2, 1 mM NADP, 1 unit/mL isocitric dehydrogenase and 6 mM isocitric acid in 100 mM potassium phosphate buffer, pH 7.4. After incubation times of 0, 3, 6, 9, 15 and 30 minutes at 37° C., 300 μL of cold acetonitrile (including internal standard) was added to 100 μL incubation mixture to terminate the reaction. Following precipitation and centrifugation, the amount of compound remaining in the samples were determined by LC-MS/MS. Controls of no NADPH regenerating system at zero and 30 minutes were also prepared and analyzed.

[3] = target: human stimulator of interferon genes (STING) (139-379) (Homo sapiens (Human), UniProt Q86WV6); test: Microliter plate-based TR-FRET competition-binding assay for binders of STING; conditions: Alexa488 probe, read-out: FRET_IC50
Description: This is the competition-binding assay to test the compounds' potency to the C-terminal Domain (CTD) and ligand-binding domain of human stimulator of interferon genes (STING). STING (139-379, Q86WV6, http://www.uniprot.org/uniprot) recombinant protein (in 20 mM Tris, 150 mM NaCl, pH 8.0, and expression in Escherichia coli (E. coli) BL21 (DE3)) with a C-terminal flag-tag was employed for the assay. When Alexa-488 labeled active site probe (refer to patent WO2017/175156 A1) bounds to STING (139-379), it accepts the 485 nm emission from Tb-M2-Flag-STING and results in an increase in fluorescence at 520 nm. Compounds that compete for the probe-binding site will reduce 520 nm signal. The assay was run in proxiplate-384 plus (PerkinElmer, cat: 60150300) containing of 2.5 nM STING, 2.5 nM M2-Tb (Cisbio, 61FG2TLA, Lot: 17 A) and 250 nM Alexa488 probe. Plates were centrifuged for 1 min at 1000 rpm, incubated for 30 min at room temperature, and then measured the dual fluorescence emission at 520 nm/485 nM following 320 nm laser excitation on an Envision plate reader (Perkin-Elmer). The compounds' effect on the STING binding is detected by measuring ratiometric fluorescence from time-resolved FRET. The percentage of inhibition of at each compound concentration is calculated on the basis of their changes of TR-FRET efficiency relative to the change of TR-FRET caused by positive control 2′3′cGAMP (Sigma, cat: SML1229).

Sequence of human stimulator of interferon genes (STING) (139-379) (Q86WV6 139-379): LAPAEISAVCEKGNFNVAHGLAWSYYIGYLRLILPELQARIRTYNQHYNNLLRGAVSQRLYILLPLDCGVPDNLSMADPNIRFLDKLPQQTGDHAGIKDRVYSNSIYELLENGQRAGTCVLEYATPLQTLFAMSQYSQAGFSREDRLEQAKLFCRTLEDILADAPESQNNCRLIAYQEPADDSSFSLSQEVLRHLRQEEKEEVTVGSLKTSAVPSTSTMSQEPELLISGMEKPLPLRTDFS

Compound	IC50 [1] [nM]	Clearance of human microsome [2] [mL/min/kg]	IC50 [3] [nM]
CN1CCCc2c3c(cccc3nn2C)-c2ccnc(n2)N[C@H]2C[C@@H](C1=O)N(c1ncnc3c1cnn3-c1ccc(F)cc1F)C2 [Example 4, (8S,11S)-10-[1-(2,4-difluorophenyl)pyrazolo[3,4-d]pyrimidin-4-yl]-13,18-dimethyl-5,7,10,13,18,19,26-heptazapentacyclo[15.6.1.1^2,6.1^8,11.0^20,24]hexacosa-1(23),2,4,6(26),17(24),19,21-heptaen-12-one]	413	15.0	0.5
CN1CCCc2c3c(cccc3nn2C)-c2cncc(n2)N[C@H]2C[C@@H](C1=O)N(c1ncnc3c1cnn3-c1ccc(F)cc1F)C2 [Example 7, (8S,11S)-10-[1-(2,4-difluorophenyl)pyrazolo[3,4-d]pyrimidin-4-yl]-13,18-dimethyl-4,7,10,13,18,19,26-heptazapentacyclo[15.6.1.1^2,6.1^8,11.0^20,24]hexacosa-1(23),2,4,6(26),17(24),19,21-heptaen-12-one]	325	13.3	0.4
COc1cc(F)ccc1-n1ncc2c(N3C[C@@H]4C[C@H]3C(=O)N(C)CCCc3c5c(cc(F)cc5nn3C)-c3ccnc(n3)O4)ncnc21 [Example 12, (8S,11S)-22-fluoro-10-[1-(4-fluoro-2-methoxy-phenyl)pyrazolo[3,4-d]pyrimidin-4-yl]-13,18-dimethyl-7-oxa-5,10,13,18,19,26-hexazapentacyclo[15.6.1.1^2,6.1^8,11.0^20,24]hexacosa-1(23),2(26),3,5,17(24),19,21-heptaen-12-one]	1410	13.2	18
COCCCN1CCCc2c3c(cccc3nn2C)-c2cccc(c2)O[C@H]2C[C@@H](C1=O)N(c1ncnc3c1cnn3-c1ccc(F)cc1F)C2 [Example 27, (8S,11S)-10-[1-(2,4-difluorophenyl)pyrazolo[3,4-d]pyrimidin-4-yl]-13-(3-methoxypropyl)-18-methyl-7-oxa-10,13,18,19-tetrazapentacyclo[15.6.1.1^2,6.1^8,11.0^20,24]hexacosa-1(23),2(26),3,5,17(24),19,21-heptaen-12-one]	23	–	14.2
Cn1nc2cccc3c2c1CCCN(CCOCc1ccncc1)C(=O)[C@@H]1C[C@@H](CN1c1ncnc2c1cnn2-c1ccc(F)cc1F)Oc1cccc-3c1 [Example 28, (8S,11S)-10-[1-(2,4-difluorophenyl)pyrazolo[3,4-d]pyrimidin-4-yl]-18-methyl-13-[2-(4-pyridylmethoxy)ethyl]-7-oxa-10,13,18,19-tetrazapentacyclo[15.6.1.1^2,6.1^8,11.0^20,24]hexacosa-1(23),2(26),3,5,17(24),19,21-heptaen-12-one]	184	–	0.2
Cn1nc2cccc3c2c1CCCN(CCCc1ccccc1)C(=O)[C@@H]1C[C@@H](CN1c1ncnc2c1cnn2-c1ccc(F)cc1F)Oc1cccc-3c1 [Example 29, (8S,11S)-10-[1-(2,4-difluorophenyl)pyrazolo[3,4-d]pyrimidin-4-yl]-18-methyl-13-(3-phenylpropyl)-7-oxa-10,13,18,19-tetrazapentacyclo[15.6.1.1^2,6.1^8,11.0^20,24]hexacosa-1(23),2(26),3,5,17(24),19,21-heptaen-12-one]	31	–	1.2
Cn1nc2cccc3c2c1CCCN(CCCN1CCOCC1)C(=O)[C@@H]1C[C@@H](CN1c1ncnc2c1cnn2-c1ccc(F)cc1F)Oc1cccc-3c1 [Example 30, (8S,11S)-10-[1-(2,4-difluorophenyl)pyrazolo[3,4-d]pyrimidin-4-yl]-18-methyl-13-(3-morpholinopropyl)-7-oxa-10,13,18,19-tetrazapentacyclo[15.6.1.1^2,6.1^8,11.0^20,24]hexacosa-1(23),2(26),3,5,17(24),19,21-heptaen-12-one]	173	–	2
CC(=O)N1CCN(CCCN2CCCc3c4c(cccc4nn3C)-c3cccc(c3)O[C@H]3C[C@@H](C2=O)N(c2ncnc4c2cnn4-c2ccc(F)cc2F)C3)CC1 [Example 33, (8S,11S)-13-[3-(4-acetylpiperazin-1-yl)propyl]-10-[1-(2,4-difluorophenyl)pyrazolo[3,4-d]pyrimidin-4-yl]-18-methyl-7-oxa-10,13,18,19-tetrazapentacyclo[15.6.1.1^2,6.1^8,11.0^20,24]hexacosa-1(23),2(26),3,5,17(24),19,21-heptaen-12-one]	806	–	1.7
Cn1nc2cccc3c2c1CCCN(CCCN1CCN(S(C)(=O)=O)CC1)C(=O)[C@@H]1C[C@@H](CN1c1ncnc2c1cnn2-c1ccc(F)cc1F)Oc1cccc-3c1 [Example 35, (8S,11S)-10-[1-(2,4-difluorophenyl)pyrazolo[3,4-d]pyrimidin-4-yl]-18-methyl-13-[3-(4-methylsulfonylpiperazin-1-yl)propyl]-7-oxa-10,13,18,19-tetrazapentacyclo[15.6.1.1^2,6.1^8,11.0^20,24]hexacosa-1(23),2(26),3,5,17(24),19,21-heptaen-12-one]	183	–	0.2
Cn1nc2cccc3c2c1CCCN(CCCn1ccnc1)C(=O)[C@@H]1C[C@@H](CN1c1ncnc2c1cnn2-c1ccc(F)cc1F)Oc1cccc-3c1 [Example 38, (8S,11S)-10-[1-(2,4-difluorophenyl)pyrazolo[3,4-d]pyrimidin-4-yl]-13-(3-imidazol-1-ylpropyl)-18-methyl-7-oxa-10,13,18,19-tetrazapentacyclo[15.6.1.1^2,6.1^8,11.0^20,24]hexacosa-1(23),2(26),3,5,17(24),19,21-heptaen-12-one]	465	–	0.9
Cn1nc2cccc3c2c1CCCN(CCCc1ccccc1)C(=O)[C@@H]1C[C@@H](CN1c1ncnc2c1cnn2-c1ccc(F)cc1F)Oc1cccc-3n1 [Example 41, (8S,11S)-10-[1-(2,4-difluorophenyl)pyrazolo[3,4-d]pyrimidin-4-yl]-18-methyl-13-(3-phenylpropyl)-7-oxa-10,13,18,19,26-pentazapentacyclo[15.6.1.1^2,6.1^8,11.0^20,24]hexacosa-1(23),2(26),3,5,17(24),19,21-heptaen-12-one]	48	–	2.1
Cn1nc2cccc3c2c1CCCN(CCCO)C(=O)[C@@H]1C[C@@H](CN1c1ncnc2c1cnn2-c1ccc(F)cc1F)Nc1cccc-3n1 [Example 42, (8S,11S)-10-[1-(2,4-difluorophenyl)pyrazolo[3,4-d]pyrimidin-4-yl]-13-(3-hydroxypropyl)-18-methyl-7,10,13,18,19,26-hexazapentacyclo[15.6.1.1^2,6.1^8,11.0^20,24]hexacosa-1(23),2(26),3,5,17(24),19,21-heptaen-12-one]	–	13.3	5.3
COc1cc(F)ccc1-n1ncc2c(N3C[C@@H]4C[C@H]3C(=O)N(CCCN3CCOCC3)CCCc3c5c(cccc5nn3C)-c3cc(C)cc(n3)N4)ncnc21 [Example 46, (8S,11S)-10-[1-(4-fluoro-2-methoxy-phenyl)pyrazolo[3,4-d]pyrimidin-4-yl]-4,18-dimethyl-13-(3-morpholinopropyl)-7,10,13,18,19,26-hexazapentacyclo[15.6.1.1^2,6.1^8,11.0^20,24]hexacosa-1(23),2(26),3,5,17(24),19,21-heptaen-12-one]	–	14.9	7.6
